How the values were obtained:
[1] = tested on: human Nav1.2, Nav1.4, Nav1.5, Nav1.7; test: in vitro; format: cell-based; details: human; all Nav subtypes, Ipeak and Ilate; read-out: pI/EC50, range over Nav currents
Description: (§1) Functional modulation of recombinant human voltage-gated sodium (Nav) channels exposed to marine PbTx-3 and brevenal was assessed by automated patch-clamp electrophysiology. Neuronal Nav1.2 (CNS) and Nav1.7 (PNS), in addition to muscle Nav1.4 (skeletal) and Nav1.5 (cardiac) sodium channels, were patch-clamped in mammalian cells. Whole-cell currents mediated by human Nav1.4 and Nav1.7 overexpressed in CHO-K1 cells, as well as human Nav1.2 and Nav1.5 overexpressed in HEK293 cells, were recorded at room temperature. Currents were elicited by 25 ms test pulses to −20 mV from a holding potential (Vh) of −120 mV, delivered for 5 min at 0.1 Hz, after each full-bath solution exchange to allow current amplitude and kinetics to reach a steady state.
(§2) Nav currents were evoked by a 25 ms test pulse to −20 mV (Vh = −120 mV; 0.1 Hz). Extracellular drug applications were performed by exchanging the whole bath with the test compounds diluted in extracellular solution to the required concentration during constant monitoring (25 ms, −20 mV, Vh −120 mV, 0.1 Hz). The control solution included 0.1% ethanol to account for non-specific vehicle effects. For concentration–response curves (CRCs), compounds at incrementally higher concentrations were applied to the extracellular bath solution and allowed to equilibrate for 5 min. The average current amplitude from the last five test pulses at each concentration was used for analysis.
(§3) APC data were analyzed using PatchMaster (Nanion) and Igor (WaveMetrics, Portland, OR, USA) software. Nav peak and late currents measured in the presence of increasing amounts of PbTx-3 and brevenal were divided by the current in control conditions (ICtr) to generate CRCs. […]

[2] = tested on: human Nav channels (Nav1.2, Nav1.4, Nav1.5, Nav1.7); test: in vitro; format: cell-based
Description: as §1, §2, §3

SMILES	EC50 [1]	fold enhancement of late currents mediated by Nav1.2, Nav1.4, and Nav1.5 [2]	orders of magnitude more potent than brevenal at modulating Nav currents [2]
C=C/C=C\CC[C@H]1O[C@H]2CC[C@@]3(C)O[C@H]4[C@@H](O)C[C@@]5(C)O[C@@H](CC/C=C(C)/C(C)=C/C=O)[C@@H](C)C[C@H]5O[C@@H]4C[C@@H]3O[C@@H]2CC[C@@]1(C)O [Brevenal]	0.01 to 10 µM		
C=C(CO)C[C@@H]1C[C@H](O)[C@]2(C)OC3CC4OC5C[C@]6(C)O[C@]7(C)CCC8OC9C[C@]%10(C)OC%11C(C)=CC(=O)OC%11CC%10OC9C[C@@H](C)C8OC7CC6O[C@@]5(C)C/C=C\C4OC3CC2O1 (stereo partly drawn) [PbTx-3, Brevetoxin PbTx-3]		2–4 fold	1–3 orders of magnitude

Reference: paper PMC10382042, “Brevetoxin versus Brevenal Modulation of Human Nav1 Channels” (Marine Drugs, 2023)
